Structures can show the parent of a compound that is named as a salt. Activity calls are given as the source filed them.
Test system: not listed separately
Experiment: viability of HCT116 lacking mutant beta-catenin – cell-based, human colon tumor, dose response (AID 1045);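 note: HCT116 colon tumor cells with beta catenin knocked out; cells exposed to compound for 60 hours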
Type: functional
Settings: not given

SMILES	EC50
CCCCn1c(SCc2ncc(-c3ccccc3)o2)nc2cc(S(N)(=O)=O)ccc21	27.4 µM (active)

Molecular target: FAD-linked sulfhydryl oxidase ALR (Homo sapiens, UniProt P55789)
Sequence (P55789 whole entry): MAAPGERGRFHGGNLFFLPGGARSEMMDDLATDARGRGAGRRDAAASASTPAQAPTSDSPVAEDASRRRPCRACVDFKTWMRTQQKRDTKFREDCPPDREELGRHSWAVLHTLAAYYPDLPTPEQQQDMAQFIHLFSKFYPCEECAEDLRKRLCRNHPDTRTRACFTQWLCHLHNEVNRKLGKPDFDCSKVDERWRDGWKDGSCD
Experiment: ALR-catalysed DTT oxidation blockers – biochemical, H2O2 detection, luminescence, cherry-pick, dose response (AID 493248)
Settings: not given

SMILES	AC50
O=C(NCc1cccs1)C(=O)NCC(c1ccco1)N1CCN(c2ccccc2)CC1 (centres undefined)	0.01 µM (active)
Nc1n[nH]c(N2CCN(c3ccc(Cl)cc3)CC2)n1	0.325 µM (active)
CCN(CC)Cc1c(-c2ccccc2)nc2ccc(C)cc2c1O	1.77 µM (active)
COc1ccccc1N1CCN(C(=O)CCNS(=O)(=O)c2cc(Br)cnc2N)CC1	11.8 µM (active)
COc1ccccc1Nc1nc(C2(C)CCC(=O)O2)cs1 (centres undefined)	4.38 µM (active)
COc1cccc(CNC(=O)CCNC(=O)N2CCn3c2nc2ccccc23)c1	1.09 µM (active)
COc1cccc(/C=N/N2C(=O)NC3(CCCCC3)C2=O)c1O	9.34 µM (active)
COc1cc(/C(C)=N/N2CCN(Cc3ccc(C)cc3)CC2)ccc1O	7.66 µM (active)
NNCCc1ccccc1 [PHENELZINE SULFATE]	7.5 µM (active)

Test system: INS1
Experiment: INS-1E survival protection against cytokine death – cell-based, luminescence, retest, dose response (AID 449756);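 note: cell death triggered by IL-1 beta plus TNF-alpha plus IFN-gamma mixture; protective hits raise ATP signal compared with cytokine alone wells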
Type: functional
Settings: Rattus norvegicus

SMILES	AC50
CCOc1ccc2nc(NC(=O)c3cccc(-c4cc5ccccc5oc4=O)c3)sc2c1	3.24 µM (active)
Cc1cc(C(=O)C(C)OC(=O)c2ccc(NC(=O)CC#N)cc2)c(C)n1-c1ccc(OC(F)F)cc1 (centres undefined)	4.26 µM (active)
C/C(=N\NC(=O)c1ccoc1C)c1ccccc1O	3.12 µM (active)

Molecular target: Cytochrome P450 2C9 (Homo sapiens, UniProt P11712)
Sequence (P11712 whole entry): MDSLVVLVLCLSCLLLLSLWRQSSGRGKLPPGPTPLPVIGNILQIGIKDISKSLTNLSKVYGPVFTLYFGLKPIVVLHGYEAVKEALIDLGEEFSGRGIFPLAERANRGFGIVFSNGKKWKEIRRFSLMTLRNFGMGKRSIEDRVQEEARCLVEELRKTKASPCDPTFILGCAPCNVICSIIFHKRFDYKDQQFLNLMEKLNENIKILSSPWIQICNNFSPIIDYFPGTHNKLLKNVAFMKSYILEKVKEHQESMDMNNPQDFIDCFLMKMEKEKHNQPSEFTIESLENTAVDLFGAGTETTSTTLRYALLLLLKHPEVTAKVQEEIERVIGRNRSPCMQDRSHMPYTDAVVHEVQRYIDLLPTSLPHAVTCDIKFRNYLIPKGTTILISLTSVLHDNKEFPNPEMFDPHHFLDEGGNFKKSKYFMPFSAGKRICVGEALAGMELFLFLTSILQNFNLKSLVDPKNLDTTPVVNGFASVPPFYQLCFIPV
Experiment: not given
Settings: not given

SMILES	AC50
CCOC(=O)c1cnn(-c2ccccc2)c1-n1cccc1C(=O)C(=O)Nc1ccccc1C(F)(F)F	5.62 µM (inconclusive)

Molecular target: T1, Heat shock factor protein 1 (Mus musculus, UniProt P38532)
T1 sequence (P38532 whole entry): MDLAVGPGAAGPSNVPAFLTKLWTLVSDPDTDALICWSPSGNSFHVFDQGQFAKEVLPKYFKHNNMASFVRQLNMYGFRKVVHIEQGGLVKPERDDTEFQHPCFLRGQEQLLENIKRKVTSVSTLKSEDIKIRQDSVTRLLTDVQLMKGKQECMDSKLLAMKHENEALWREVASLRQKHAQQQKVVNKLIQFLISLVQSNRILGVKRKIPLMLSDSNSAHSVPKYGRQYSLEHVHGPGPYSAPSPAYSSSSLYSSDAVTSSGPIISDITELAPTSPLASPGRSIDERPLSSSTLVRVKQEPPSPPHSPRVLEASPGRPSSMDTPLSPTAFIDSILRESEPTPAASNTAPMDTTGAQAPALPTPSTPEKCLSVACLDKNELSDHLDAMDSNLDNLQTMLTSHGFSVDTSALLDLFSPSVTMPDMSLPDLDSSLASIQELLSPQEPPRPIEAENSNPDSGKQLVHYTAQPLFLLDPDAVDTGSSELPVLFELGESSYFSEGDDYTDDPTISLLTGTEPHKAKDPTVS
Experiment: enhancement of HSF1-driven luciferase signal – cell-based, NIH3T3, luminescence, dose retest, confirmation (AID 435004);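 note: stress induced by proteasome inhibitor MG132 added 30 min after compound; luciferase reporter driven by HSF1 response element in NIH3T3 cells; actives raise luminescence as potentiators of the MG132 stress response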
Type: functional
Settings: not given

SMILES	EC50
CC(=O)c1c(C)[nH]c(C(=O)Nc2cccc(C)n2)c1C	> 260 µM (inactive)
O=C1C2CCCCC2C(=O)N1Cc1ccccc1 (centres undefined)	> 260 µM (inactive)
CC(C)CC(NS(=O)(=O)c1ccc2c(c1)oc(=O)n2C)C(=O)NC1CCCc2ccccc21 (centres undefined)	> 260 µM (inactive)
COC(=O)C1CCN(C(=O)Cc2c(OC)ccc3cc(Br)ccc23)CC1	68.2 µM (active)
O=C(C1=C[C@@H](C2CC2)C[C@@H](OCc2ccc(CO)cc2)O1)N1CCN(Cc2ccccc2)CC1	> 260 µM (inactive)
Nc1n[nH]c(SCC(=O)Nc2ccc([N+](=O)[O-])cc2Br)n1	> 260 µM (inactive)
COc1ccc(C2(C)NC(=O)N(CC3CCCCC3)C2=O)cc1 (centres undefined)	> 260 µM (inactive)
Cc1ccccc1-c1cc(=O)c2c(O)cccc2o1	> 260 µM (inactive)
COc1cc(C2NC(=O)NC(C)=C2C(=O)OC2CCCCC2)cc(Cl)c1O (centres undefined)	> 260 µM (inactive)
COc1ccc(/C=C/C(=O)OC2CCCN(C)C2)cc1 (centres undefined)	> 260 µM (inactive)
CCOC(=O)CC1NCCc2c1[nH]c1ccc(OC)cc21 (centres undefined)	> 260 µM (inactive)
COc1ccccc1-c1ccc(SCC(=O)Nc2cc(C)on2)nn1	> 260 µM (inactive)
CO/N=C/c1cc([N+](=O)[O-])ccc1Sc1ccc(C)cc1	> 260 µM (inactive)

Test system: not listed separately
Experiment: viability of PTEN-deleted HCT116 cells – cell-based, HCT116 PTEN knockout, dose response (AID 1047);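 note: HCT116 colon tumor cells with PTEN knocked out; cells exposed to compound for 60 hours before readout; potency for loss of cell viability measured by luminescence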
Type: functional
Settings: not given

SMILES	EC50
CCCCn1c(SCc2ncc(-c3ccccc3)o2)nc2cc(S(N)(=O)=O)ccc21	26 µM (active)

Molecular target: T2, Cytochrome P450 1A2 (Homo sapiens, UniProt P05177);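 note: PubChem cytochrome P450 panel assay, CYP1A2 panel member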
T2 sequence (P05177 whole entry): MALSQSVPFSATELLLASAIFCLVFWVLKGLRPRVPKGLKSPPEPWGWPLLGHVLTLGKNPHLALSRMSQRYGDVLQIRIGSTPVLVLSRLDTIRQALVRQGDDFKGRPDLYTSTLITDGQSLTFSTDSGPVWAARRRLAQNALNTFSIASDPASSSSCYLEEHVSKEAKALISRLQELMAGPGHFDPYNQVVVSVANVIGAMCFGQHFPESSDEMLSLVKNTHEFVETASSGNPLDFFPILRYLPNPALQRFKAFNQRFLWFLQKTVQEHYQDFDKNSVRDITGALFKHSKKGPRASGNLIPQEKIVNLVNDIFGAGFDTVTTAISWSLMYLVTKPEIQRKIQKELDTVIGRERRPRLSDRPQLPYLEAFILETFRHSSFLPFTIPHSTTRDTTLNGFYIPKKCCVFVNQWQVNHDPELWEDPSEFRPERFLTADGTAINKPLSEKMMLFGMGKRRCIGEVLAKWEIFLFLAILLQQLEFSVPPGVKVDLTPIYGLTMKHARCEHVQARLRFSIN
Experiment: not given
Settings: not given

SMILES	AC50
CCOC(=O)c1cnn(-c2ccccc2)c1-n1cccc1C(=O)C(=O)Nc1ccccc1C(F)(F)F	14.1 µM (inconclusive)

Molecular target: T3, Rac GTPase-activating protein 1 (Homo sapiens, UniProt Q9H0H5)
T3 sequence (Q9H0H5 whole entry): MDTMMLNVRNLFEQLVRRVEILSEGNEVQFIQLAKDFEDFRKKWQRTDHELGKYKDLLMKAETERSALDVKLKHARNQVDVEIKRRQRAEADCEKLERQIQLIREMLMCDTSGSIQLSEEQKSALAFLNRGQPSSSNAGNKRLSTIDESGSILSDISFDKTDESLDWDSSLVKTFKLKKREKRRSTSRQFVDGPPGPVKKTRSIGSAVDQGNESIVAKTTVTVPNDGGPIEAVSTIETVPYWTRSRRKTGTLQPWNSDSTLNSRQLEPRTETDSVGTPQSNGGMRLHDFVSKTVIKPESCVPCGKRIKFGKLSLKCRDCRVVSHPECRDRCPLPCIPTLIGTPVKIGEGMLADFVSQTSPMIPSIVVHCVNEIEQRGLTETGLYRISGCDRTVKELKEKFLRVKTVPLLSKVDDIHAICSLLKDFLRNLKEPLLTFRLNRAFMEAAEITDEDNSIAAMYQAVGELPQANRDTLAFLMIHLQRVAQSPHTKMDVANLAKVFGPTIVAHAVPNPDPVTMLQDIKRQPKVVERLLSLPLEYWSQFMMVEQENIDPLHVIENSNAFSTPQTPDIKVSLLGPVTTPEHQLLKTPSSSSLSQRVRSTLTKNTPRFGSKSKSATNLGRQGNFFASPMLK
Experiment: blockers of MgcRacGAP-driven Rac1 GTP hydrolysis – biochemical, ADP Hunter fluorescence, primary and confirmatory, confirmation (AID 624330)
Type: functional
Settings: not given

SMILES	IC50
COc1cc(/C(C)=N/N2CCN(Cc3ccc(C)cc3)CC2)ccc1O	271 µM (active)

Test system: not listed separately
Experiment: cells
Type: functional
Settings: not given

SMILES	IC50
COc1ccc(C(=O)OCn2nnc3ccccc3c2=O)cc1[N+](=O)[O-]	7.55 µM (active)
O=C(CCNc1ccc(Cl)cc1)c1cccs1	25.5 µM (active)
C=Cc1cccc(NC(=O)COc2ccccc2)c1	> 50 µM (active)
CCOC(=O)c1cc(-c2cccc([N+](=O)[O-])c2)on1	10.3 µM (active)
COc1ccc(C(=O)COC(=O)COc2ccc(C)c(C)c2)cc1	> 50 µM (active)
CC(C)Cc1nnc(NC(=O)CCS(=O)(=O)c2ccc(Cl)cc2)s1	36 µM (active)

Test system: not listed separately
Experiment: microbe, parasite or virus in culture
Type: functional
Settings: Mycobacterium tuberculosis

SMILES	CC50
COc1cc(NC(=O)c2ccc(C(C)(C)C)cc2)c(OC)cc1NC(=O)CN1CCCCC1	> 40 µM (active)
Cc1ccc(NC(=S)N(CCCN2CCCC2)Cc2cccn2Cc2ccc(Cl)cc2)cc1C	17.7 µM (active)
CSc1nsc(/C=C/Nc2ccc(O)cc2C)c1C#N	> 40 µM (active)
COc1ccc(-c2ccnc3nc(N4CCN(c5ccccc5)CC4)nn23)cc1	> 40 µM (active)
CCCCn1c(SCc2ncc(-c3ccccc3)o2)nc2cc(S(N)(=O)=O)ccc21	> 40 µM (active)
Oc1ccccc1/N=C/c1ccc[nH]1	> 40 µM (active)
C/N=c1\scc(-c2ccccc2Br)n1/N=C/c1ccc[nH]1	> 40 µM (active)

Test system: not listed separately
Experiment: Luminescence Cell-Based Dose Response HTS to Identify Activators of Luciferase Translation or Activity in H4 […] Cells. [Related pubchem assays: 1829 (Project Summary), 1814 (Primary HTS)]
Type: functional
Settings: not given

SMILES	EC50
N#Cc1c(-c2ccc(Cl)cc2)ccn2nc(C3CCCCC3)nc12	6.98 µM (active)

Molecular target: Cytochrome P450 3A4 (Homo sapiens, UniProt P08684);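 note: CYP3A4 tested as one member of a cytochrome P450 panel screen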
Sequence (P08684 whole entry): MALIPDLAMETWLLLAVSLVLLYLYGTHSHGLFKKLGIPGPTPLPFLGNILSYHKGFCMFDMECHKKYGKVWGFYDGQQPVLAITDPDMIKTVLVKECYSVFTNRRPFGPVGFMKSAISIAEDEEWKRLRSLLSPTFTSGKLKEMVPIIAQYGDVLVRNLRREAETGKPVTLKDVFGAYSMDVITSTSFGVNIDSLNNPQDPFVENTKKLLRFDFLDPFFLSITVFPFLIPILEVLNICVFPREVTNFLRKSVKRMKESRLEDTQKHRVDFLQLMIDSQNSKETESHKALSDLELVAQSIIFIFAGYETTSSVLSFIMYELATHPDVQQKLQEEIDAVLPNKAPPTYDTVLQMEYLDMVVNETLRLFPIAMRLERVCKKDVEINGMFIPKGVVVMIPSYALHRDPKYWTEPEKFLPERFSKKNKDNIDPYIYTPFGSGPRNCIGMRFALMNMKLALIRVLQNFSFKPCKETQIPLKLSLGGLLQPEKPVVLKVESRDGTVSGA
Experiment: not given
Settings: not given

SMILES	AC50
CCOC(=O)c1cnn(-c2ccccc2)c1-n1cccc1C(=O)C(=O)Nc1ccccc1C(F)(F)F	4.47 µM (inconclusive)

Molecular target: Genome polyprotein (dengue virus type 2, UniProt P29990)
Sequence (P29990 2492-3391 limits assumed): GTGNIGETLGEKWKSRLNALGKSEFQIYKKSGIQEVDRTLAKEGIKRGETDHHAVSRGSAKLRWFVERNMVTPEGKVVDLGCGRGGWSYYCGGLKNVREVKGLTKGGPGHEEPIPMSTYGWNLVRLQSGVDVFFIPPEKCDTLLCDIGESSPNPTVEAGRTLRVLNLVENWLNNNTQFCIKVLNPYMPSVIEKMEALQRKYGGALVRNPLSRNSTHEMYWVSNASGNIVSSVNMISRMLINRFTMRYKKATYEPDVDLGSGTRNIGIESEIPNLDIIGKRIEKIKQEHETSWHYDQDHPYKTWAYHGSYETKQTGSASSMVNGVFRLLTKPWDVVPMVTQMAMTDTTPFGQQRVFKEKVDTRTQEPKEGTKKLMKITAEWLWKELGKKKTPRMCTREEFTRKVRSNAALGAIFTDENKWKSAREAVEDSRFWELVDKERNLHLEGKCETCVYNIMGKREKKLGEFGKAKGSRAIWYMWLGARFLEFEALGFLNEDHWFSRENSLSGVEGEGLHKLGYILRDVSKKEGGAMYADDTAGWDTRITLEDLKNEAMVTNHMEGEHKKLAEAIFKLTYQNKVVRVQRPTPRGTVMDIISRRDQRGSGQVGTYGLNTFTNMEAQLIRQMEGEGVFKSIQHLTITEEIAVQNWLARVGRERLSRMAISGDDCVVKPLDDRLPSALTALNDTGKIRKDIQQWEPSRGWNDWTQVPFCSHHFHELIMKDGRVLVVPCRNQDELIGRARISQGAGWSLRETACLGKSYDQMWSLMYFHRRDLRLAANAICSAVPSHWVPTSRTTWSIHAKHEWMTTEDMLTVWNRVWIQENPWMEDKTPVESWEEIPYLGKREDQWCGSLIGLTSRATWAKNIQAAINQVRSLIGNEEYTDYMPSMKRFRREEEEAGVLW
Experiment: flavivirus cap methylation enzyme inhibition – biochemical, confirmation dose response, primary screen (AID 588689)
Type: functional
Settings: not given

SMILES	IC50
COc1cc(/C=C2/C(=O)NN(c3ccc(F)cc3)C2=O)cc([N+](=O)[O-])c1O	> 100 µM (active)

Molecular target: T4, Protein skinhead-1 (Caenorhabditis elegans, UniProt P34707)
T4 sequence (P34707 whole entry): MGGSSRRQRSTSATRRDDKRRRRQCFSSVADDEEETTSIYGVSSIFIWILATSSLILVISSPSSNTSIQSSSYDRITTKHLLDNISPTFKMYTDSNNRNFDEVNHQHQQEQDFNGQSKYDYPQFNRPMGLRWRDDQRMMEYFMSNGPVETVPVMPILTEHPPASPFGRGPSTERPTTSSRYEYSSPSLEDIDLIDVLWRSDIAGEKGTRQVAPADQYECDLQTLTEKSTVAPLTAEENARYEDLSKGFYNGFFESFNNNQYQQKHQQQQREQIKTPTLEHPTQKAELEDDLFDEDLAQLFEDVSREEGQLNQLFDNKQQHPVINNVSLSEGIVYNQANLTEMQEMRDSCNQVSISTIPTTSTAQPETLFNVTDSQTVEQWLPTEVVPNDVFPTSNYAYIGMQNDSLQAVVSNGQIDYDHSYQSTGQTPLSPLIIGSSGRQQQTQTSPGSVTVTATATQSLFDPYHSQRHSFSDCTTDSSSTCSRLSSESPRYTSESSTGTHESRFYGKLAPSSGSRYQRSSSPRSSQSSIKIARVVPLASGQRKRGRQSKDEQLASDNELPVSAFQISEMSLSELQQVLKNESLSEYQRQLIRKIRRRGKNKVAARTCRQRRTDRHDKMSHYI
Experiment: not given
Type: functional
Settings: not given

SMILES	IC50
COc1ccc(CN2CCN(c3ccccc3F)CC2)cc1O	> 100 µM (inactive)
COCC(=O)NCc1ccc2c(c1)cc(C)n2C	> 100 µM (inactive)
Cn1nnnc1SCC(=O)N1CCN(c2cccc(Cl)c2)CC1	> 100 µM (inactive)
CCN(CC)C(=O)Oc1ccc(Br)c2ccccc12	> 100 µM (inactive)
O=C(Nc1ccc(-c2nnc(-c3ccccc3)o2)cc1)c1ccc(Br)o1	76.3 µM (inactive)
C(=C\c1nc(-c2ccncc2)no1)/c1ccccc1	12.4 µM (active)
Cn1/c(=N/C(=O)C2CC2)sc2cc(F)cc(F)c21	> 100 µM (inactive)

Test system: not listed separately
Experiment: viability of uninfected HEp-2 cells – cell-based, HTS, cytotoxicity control for RSV inhibitor project, dose response (AID 2410)
Type: functional
Settings: human respiratory syncytial virus

SMILES	CC50
Cc1cccc(NC(=O)Cc2coc3ccc4ccccc4c23)n1	33.8 µM (active)
COC(=O)c1ccc(-c2ccco2)n1Cc1nc(-c2ccc(OC)c(OC)c2)oc1C	34 µM (active)
OCCOCCn1c(CCNc2nc(-c3ccc(Cl)cc3)cs2)nc2cc(Cl)c(Cl)cc21	14.3 µM (active)
CCOC(=O)c1cnn(-c2ccccc2)c1-n1cccc1C(=O)C(=O)Nc1ccccc1C(F)(F)F	24.1 µM (active)
O=C1CCC(/C=C/c2ccccc2)=NN1Cc1ccc(Cl)c(Cl)c1	24.4 µM (active)
CCOc1cc(/C=N/NC(N)=O)cc(Br)c1OCc1ccccc1	19.4 µM (active)

Reference: ChEMBL document CHEMBL1201862, “PubChem BioAssay data set” (2004)
